We go through 28 molecules from US9586931B2 (Merck Sharp & Dohme Corp., priority 2012, dated 2017).

pIC50: −log10 of the molar value.

The assay concerns the target T1, recombinant human GST-Syk (Homo sapiens, UniProt P43405).
T1 construct: purchased Carna Biosciences 08-176
Nature of the assay: Homogeneous Time-Resolved Fluorescence (HTRF) assay for the recombinant human Syk enzyme. Format: biochemical. Particulars: recombinant human GST-Syk 5 pM, ATP 25 μM, 10-dose titration 10 μM to 0.508 nM; read-out: rhSYK Activity IC50. The protocol: Syk inhibition may be determined using the following assay protocol:
Homogeneous Time-Resolved Fluorescence (HTRF) assay for the recombinant human Syk enzyme: A recombinant GST-hSyk fusion protein was used to measure potency of compounds to inhibit human Syk activity. […] Final volume of the reaction was 10 μL. Phosphorylation of the peptide was allowed to proceed for 45 minutes at room temperature. To quench the reaction and detect the phosphorylated product, 2 nM of a Europium-anti-phosphotyrosine antibody (Perkin Elmer #AD0161) and 70 nM SA-APC (Perkin-Elmer #CR130-100) were added together in 15 mM Tris pH 7.5, 40 mM EDTA, 0.01% tween 20. Final volume of the quenching solution was 10 μL. The resulting HTRF signal was measured after 30 minutes on an EnVision (Perkin-Elmer) reader using a time-resolved fluorescence protocol.
Background: In TR-FRET formats the signal depends on donor and acceptor labels being close together.
A word on the pIC50: it is −log10 of the IC50, conventionally taken in molar units. On to `Cc1cc(Nc2nccc(C(F)(F)F)n2)cc(-c2cn(C[C@H](C)CO)nn2)c1` [Example 5.72, (2S)-2-methyl-3-[4-(3-methyl-5-{[4-(trifluoromethyl)pyrimidin-2-yl]amino}phenyl)-1H-1,2,3-triazol-1-yl]propan-1-ol], for which the pIC50 was 7.42.

For the molecule `COC(=O)[C@@H]1CCCN1C(=O)[C@H](C)n1cc(-c2cc(C)cc(Nc3cc(C(F)(F)F)ccn3)n2)nn1` [Example 1.56, methyl 1-{(2S)-2-[4-(4-methyl-6-{[4-(trifluoromethyl)pyridin-2-yl]amino}pyridin-2-yl)-1H-1,2,3-triazol-1-yl]propanoyl}prolinate], the pIC50 is 6.37.

On to `Cc1cc(Nc2cc(C(F)F)ccn2)nc(-c2cn(CC3OC(=O)NC3C)nn2)c1` (single isomer, unassigned) [Example 7.44, 5-{[4-(6-{[4-(difluoromethyl)pyridin-2-yl]amino}-4-methylpyridin-2-yl)-1H-1,2,3-triazol-1-yl]methyl}-4-methyl-1,3-oxazolidin-2-one], for which the negative logarithm of the IC50 (pIC50) was 7.74.

Regarding `Cc1cc(Nc2cc(C(F)(F)F)ccn2)nc(-c2cn(CC3CNC(=O)O3)nn2)c1` (racemic) [Example 5.84, 5-{[4-(4-methyl-6-{[4-(trifluoromethyl)pyridin-2-yl]amino}pyridin-2-yl)-1H-1,2,3-triazol-1-yl]methyl}-1,3-oxazolidin-2-one], the pIC50 is 8.68.

On to `Cc1cc(Nc2cc(C(F)(F)F)ccn2)nc(-c2cn(C(CO)c3ccccc3)nn2)c1` (stereo not shown) [Example 13.8, 2-[4-(4-methyl-6-{[4-(trifluoromethyl)pyridin-2-yl]amino}pyridin-2-yl)-1H-1,2,3-triazol-1-yl]-2-phenylethanol], for which the negative logarithm of the IC50 (pIC50) was 8.15.

Regarding `Cc1cc(Nc2cc(C(C)C)ccn2)nc(-c2cn(C(C)c3ccc(C(=O)O)cc3)nn2)c1` (stereo not shown) [Example 2.13, 4-{1-[4-(4-methyl-6-{[4-(1-methylethyl)pyridin-2-yl]amino}pyridin-2-yl)-1H-1,2,3-triazol-1-yl]ethyl}benzoic acid], the negative-log IC50 (pIC50) is 8.08.

As for `Cc1cc(Nc2cc(C(F)(F)F)ccn2)nc(-c2cn(C3(CO)CCC3)nn2)c1` [Example 13.6, {1-[4-(4-methyl-6-{[4-(trifluoromethyl)pyridin-2-yl]amino}pyridin-2-yl)-1H-1,2,3-triazol-1-yl]cyclobutyl}methanol], the pIC50 was 8.49.

Turning to `Cc1cc(Nc2nccc(C(F)(F)F)n2)cc(-c2cn(C3COCC3O)nn2)c1` (single isomer, unassigned) [Example 4.8, 4-[4-(3-methyl-5-{[4-(trifluoromethyl)pyrimidin-2-yl]amino}phenyl)-1H-1,2,3-triazol-1-yl]tetrahydrofuran-3-ol], the pIC50 is 7.45.

For `Cc1cc(Nc2cc(C(F)(F)F)ccn2)nc(-c2cn(C(C)C(=O)N3CCN(Cc4ccccc4)C(c4ccccc4)C3)nn2)c1` (stereo not shown) [Example 1.50, 6-{1-[2-(4-benzyl-3-phenylpiperazin-1-yl)-1-methyl-2-oxoethyl]-1H-1,2,3-triazol-4-yl}-4-methyl-N-[4-(trifluoromethyl)pyridin-2-yl]pyridin-2-amine], the pIC50 is 6.24.

On to `Cc1cc(Nc2cc(C(F)(F)F)ccn2)nc(-c2cn(CC(O)CO)nn2)c1` (racemic) [Example 5.95, 3-[4-(4-methyl-6-{[4-(trifluoromethyl)pyridin-2-yl]amino}pyridin-2-yl)-1H-1,2,3-triazol-1-yl]propane-1,2-diol], for which the pIC50 was 8.10.

`Cc1cc(Nc2nccc(C(F)F)n2)cc(-c2cn(C3CCCCC3O)nn2)c1` (stereo not shown) [Example 4.35, 2-[4-(3-{[4-(difluoromethyl)pyrimidin-2-yl]amino}-5-methylphenyl)-1H-1,2,3-triazol-1-yl]cyclohexanol]: the pIC50 is 7.96.

`Cc1cc(Nc2nccc(C(F)F)n2)cc(-c2cn(CC3(C)CNC(=O)O3)nn2)c1` (single isomer, unassigned) [Example 7.32, 5-{[4-(3-{[4-(difluoromethyl)pyrimidin-2-yl]amino}-5-methylphenyl)-1H-1,2,3-triazol-1-yl]methyl}-5-methyl-1,3-oxazolidin-2-one]: the pIC50 is 8.30.

In the case of `Cc1cc(Nc2cc(C)c(Cl)cn2)nc(-c2cn(CC(C)(O)C(C)(C)O)nn2)c1` (stereo not shown) [Example 21.10, 1-(4-{6-[(5-chloro-4-methylpyridin-2-yl)amino]-4-methylpyridin-2-yl}-1H-1,2,3-triazol-1-yl)-2,3-dimethylbutane-2,3-diol], the pIC50 is 7.70.

As for `Cc1cc(Nc2cc(C(F)(F)F)ccn2)nc(-c2cn(C/C=C/c3ccccc3)nn2)c1` [Example 5.35, 4-methyl-6-{1-[(2E)-3-phenylprop-2-en-1-yl]-1H-1,2,3-triazol-4-yl}-N-[4-(trifluoromethyl)pyridin-2-yl]pyridin-2-amine], the pIC50 is 6.52.

With `Cc1cc(Nc2ncc(F)c(C(F)F)n2)cc(-c2cn(CC3OC(=O)NC34CC4)nn2)c1` (single isomer, unassigned) [Example 7.34, 7-{[4-(3-{[4-(difluoromethyl)-5-fluoropyrimidin-2-yl]amino}-5-methylphenyl)-1H-1,2,3-triazol-1-yl]methyl}-6-oxa-4-azaspiro[2.4]heptan-5-one], the pIC50 is 8.00.

Regarding `Cc1cc(Nc2nccc(C(F)(F)F)n2)cc(-c2cn(C3CS(=O)(=O)CC3O)nn2)c1` (stereo not shown) [Example 5.63, 4-[4-(3-methyl-5-{[4-(trifluoromethyl)pyrimidin-2-yl]amino}phenyl)-1H-1,2,3-triazol-1-yl]tetrahydrothiophene-3-ol 1,1-dioxide], the pIC50 is 7.62.

Take `Cc1cc(Nc2cc(C(F)(F)F)ccn2)nc(-c2cn(CCC(N)=O)nn2)c1` [Example 1.3, 3-[4-(4-methyl-6-{[4-(trifluoromethyl)pyridin-2-yl]amino}pyridin-2-yl)-1H-1,2,3-triazol-1-yl]propanamide]: the pIC50 is 8.42.

For `Cc1cc(Nc2cc(C(F)(F)F)ccn2)nc(-c2cn(C(C)C(=O)N3CCC(c4ccncc4)C3)nn2)c1` (stereo not shown) [Example 1.53, 4-methyl-6-{1-[1-methyl-2-oxo-2-(3-pyridin-4-ylpyrrolidin-1-yl)ethyl]-1H-1,2,3-triazol-4-yl}-N-[4-(trifluoromethyl)pyridin-2-yl]pyridin-2-amine], the pIC50 is 7.46.

`CCOC(=O)C(O)C(O)Cn1cc(-c2cc(C)cc(Nc3cc(C(F)(F)F)ccn3)n2)nn1` (stereo not shown) [Example 10.9, ethyl 2,3-dihydroxy-4-[4-(4-methyl-6-{[4-(trifluoromethyl)pyridin-2-yl]amino}pyridin-2-yl)-1H-1,2,3-triazol-1-yl]butanoate]: the pIC50 was 7.48.

Consider `Cc1cc(Nc2cc(C(F)F)ccn2)nc(-c2cn(CC(C)(O)CO)nn2)c1` (stereo not shown) [Example 21.39, 3-(4-(6-((4-(difluoromethyl)pyridin-2-yl)amino)-4-methylpyridin-2-yl)-1H-1,2,3-triazol-1-yl)-2-methylpropane-1,2-diol], for which the pIC50 is 8.74.

As for `Cc1cc(Nc2cc(C(F)(F)F)ccn2)nc(-c2cn(CC(O)C(C)O)nn2)c1` (stereo not shown) [Example 10.13, 1-[4-(4-methyl-6-{[4-(trifluoromethyl)pyridin-2-yl]amino}pyridin-2-yl)-1H-1,2,3-triazol-1-yl]butane-2,3-diol], the pIC50 was 7.73.

On to `COC(=O)c1ccc(C(O)Cn2cc(-c3cc(C)cc(Nc4cc(C(F)(F)F)ccn4)n3)nn2)cc1` (stereo not shown) [Example 4.17, methyl 4-{1-hydroxy-2-[4-(4-methyl-6-{[4-(trifluoromethyl)pyridin-2-yl]amino}pyridin-2-yl)-1H-1,2,3-triazol-1-yl]ethyl}benzoate], for which the pIC50 is 7.58.

For `Cc1cc(Nc2cc(C(F)(F)F)ccn2)nc(-c2cn(CC3(O)CCCCC3O)nn2)c1` (stereo not shown) [Example 10.10, 1-{[4-(4-methyl-6-{[4-(trifluoromethyl)pyridin-2-yl]amino}pyridin-2-yl)-1H-1,2,3-triazol-1-yl]methyl}cyclohexane-1,2-diol], the pIC50 is 7.71.

As for `Cc1cc(Nc2cc(C(F)(F)F)ccn2)nc(-c2cn([C@@H](C)C(=O)N3CCC[C@H]3C(=O)O)nn2)c1` [Example 3.13, 1-{(2S)-2-[4-(4-methyl-6-{[4-(trifluoromethyl)pyridin-2-yl]amino}pyridin-2-yl)-1H-1,2,3-triazol-1-yl]propanoyl}proline], the pIC50 was 7.02.

Regarding `Cc1cc(Nc2nccc(C(F)(F)F)n2)cc(-c2cn(CCC(=O)O)nn2)c1` [Example 5.60, 3-[4-(3-methyl-5-{[4-(trifluoromethyl)pyrimidin-2-yl]amino}phenyl)-1H-1,2,3-triazol-1-yl]propanoic acid], the pIC50 was 7.38.

For `Cc1cc(Nc2nccc(C(F)(F)F)n2)cc(-c2cn(C3CCC(C(=O)OC(C)(C)C)CC3)nn2)c1` (stereo not shown) [Example 9.4, tert-butyl 4-[4-(3-methyl-5-{[4-(trifluoromethyl)-pyrimidin-2-yl]amino}-phenyl)-1H-1,2,3-triazol-1-yl]cyclohexane-carboxylate], the pIC50 is 5.14.

For `Cc1cc(Nc2nccc(C(F)F)n2)cc(-c2cn(CC3CNC(=O)O3)nn2)c1` (single isomer, unassigned) [Example 7.4, 5-((4-(3-((4-(difluoromethyl)pyrimidin-2-yl)amino)-5-methylphenyl)-1H-1,2,3-triazol-1-yl)methyl)oxazolidin-2-one], the pIC50 is 8.74.

On to `Cc1cc(Nc2cc(C(F)(F)F)ccn2)nc(-c2cn(C3CCC(C(=O)O)CC3)nn2)c1` (mixture of isomers) [Example 5.46, 4-[4-(4-methyl-6-{[4-(trifluoromethyl)pyridin-2-yl]amino}pyridin-2-yl)-1H-1,2,3-triazol-1-yl]cyclohexane-carboxylic acid], for which the pIC50 was 8.31.
